Among the data in PubChem BioAssay (NCI) are TGI values, retold here.

Each structure is given as a SMILES string.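 96-well plates; 48 h exposure; 5 concentrations. Endpoints by linear interpolation between flanking doses. Not reached: highest tested concentration assigned. TGI: total growth inhibition.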 Some results are limits rather than exact numbers.

Among the test systems are OVCAR-4 ovarian; K-562 leukemia; LOX IMVI melanoma; OVCAR-5 ovarian; MOLT-4 leukemia; HCT-15 colon; A498 renal; SK-MEL-5 melanoma.
Assay in all cases: growth of human tumour cells (NCI), 48 h

`COc1ccc2oc(-c3ccc(OC)c(OC)c3OC)cc(=O)c2c1`: the TGI in the assay on OVCAR-4 ovarian, with K-562 leukemia, in the assay on LOX IMVI melanoma and in the assay on OVCAR-5 ovarian was over 100 µM throughout.
On to `Cc1nc(/C=C2\C(=O)C=Cc3ccccc32)c(O)o1`, for which the TGI with MOLT-4 leukemia, with HCT-15 colon, with OVCAR-4 ovarian, in the assay with K-562 leukemia, in the assay on A498 renal and in the assay on SK-MEL-5 melanoma was over 100 µM in each case. Further, the TGI with OVCAR-5 ovarian was over 100 µM.
For `COC(=O)/C(C#N)=C(\N)C(Cl)(Cl)Cl`, the TGI with MOLT-4 leukemia was found to be 3.2 µM; with HCT-15 colon it was 8.43 µM; with OVCAR-4 ovarian it was 8.56 µM; in the assay with K-562 leukemia it was 4.51 µM; with A498 renal, 8.22 µM; with LOX IMVI melanoma, 10.8 µM. For the same molecule, the TGI with SK-MEL-5 melanoma stood at 3.82 µM.
With `Cc1cc(C)c(C(=O)O)c(SSc2cc(C)cc(C)c2C(=O)O)c1`, the TGI in the assay with MOLT-4 leukemia, in the assay with OVCAR-4 ovarian, in the assay with K-562 leukemia, with A498 renal, in the assay on LOX IMVI melanoma and with SK-MEL-5 melanoma was over 100 µM throughout. The molecule further had a TGI in the assay with OVCAR-5 ovarian of over 100 µM.
For the molecule `C=CCC1(C(=O)OC(C)(C)C)C(OC)=C(C(=O)OC(C)(C)C)C2C1C(C(=O)OC(C)(C)C)=C(OC)C2(CC=C)C(=O)OC(C)(C)C` (configuration not stated), the TGI in the assay with MOLT-4 leukemia, in the assay with HCT-15 colon, in the assay on K-562 leukemia and with OVCAR-5 ovarian was over 100 µM in each case.
For the molecule `COc1ccc(C(=O)CC2=Nc3nnc(CCCCCCCc4nnc5n4C(=O)C(CC(=O)c4ccc(OC)cc4)=N5)n3C2=O)cc1`, the TGI in the assay on MOLT-4 leukemia, in the assay on HCT-15 colon, in the assay on K-562 leukemia, in the assay on A498 renal, with LOX IMVI melanoma and in the assay on SK-MEL-5 melanoma was over 100 µM in each case. For the same molecule, the TGI in the assay with OVCAR-5 ovarian is over 100 µM.
Take `Cc1nc(N)nc(N)c1CCCc1ccccc1`: the TGI with MOLT-4 leukemia, in the assay with HCT-15 colon, in the assay with OVCAR-4 ovarian, in the assay on K-562 leukemia, in the assay with LOX IMVI melanoma and in the assay with SK-MEL-5 melanoma was over 100 µM in each case. Also, the TGI with OVCAR-5 ovarian is over 100 µM.
Consider `CC(=O)NNc1nc(C)c(C(=O)/C=C/c2ccc(Cl)cc2)s1`, for which the TGI in the assay with MOLT-4 leukemia, in the assay on K-562 leukemia, in the assay on A498 renal, with LOX IMVI melanoma, in the assay on SK-MEL-5 melanoma and in the assay with OVCAR-5 ovarian was over 100 µM each time.
Consider `CCCCc1c2cnccc2c(CCCC)c2c1[nH]c1ccccc12`, for which the TGI with MOLT-4 leukemia was 23.7 µM; in the assay with HCT-15 colon it was 46 µM; with OVCAR-4 ovarian it was 29.8 µM; in the assay on K-562 leukemia, 19.9 µM; with A498 renal it was 35.2 µM; in the assay with LOX IMVI melanoma it was 41.4 µM. The molecule also returned a TGI in the assay with OVCAR-5 ovarian of over 100 µM.
For `CCCN(CCC)C(=O)c1nc(N)nc(-c2ccc(OC)cc2)c1-c1ccc(OC)cc1`, the TGI with MOLT-4 leukemia, in the assay with HCT-15 colon, with OVCAR-4 ovarian, with K-562 leukemia, with A498 renal and in the assay on SK-MEL-5 melanoma was over 100 µM throughout. The molecule also came in with a TGI with OVCAR-5 ovarian of over 100 µM.
For `CC(C(=O)c1ccccc1)C1(O)C(=O)Nc2ccc(Cl)cc21` (configuration not stated), the TGI in the assay with HCT-15 colon is over 100 µM; with OVCAR-4 ovarian, 77.8 µM; in the assay on A498 renal it was over 100 µM; in the assay on LOX IMVI melanoma it was over 100 µM; with OVCAR-5 ovarian, over 100 µM.
Turning to `N/N=C(\c1nc2ccc(Cl)cc2[nH]c1=O)C(O)c1ccc(Cl)c(Cl)c1` (configuration not stated), the TGI with MOLT-4 leukemia was over 100 µM; with HCT-15 colon it was over 100 µM; in the assay on OVCAR-4 ovarian it was 87.8 µM; in the assay with K-562 leukemia, over 100 µM; in the assay with LOX IMVI melanoma, over 100 µM; with SK-MEL-5 melanoma it was over 100 µM. In the assay with OVCAR-5 ovarian, this molecule yielded a TGI of over 100 µM.
For the molecule `COc1cc2c(cc1OC)C1Cc3ccc(OC)c(OC)c3C[N+]1([O-])CC2` (configuration not stated), the TGI in the assay with MOLT-4 leukemia, in the assay on OVCAR-4 ovarian, in the assay with K-562 leukemia, in the assay on A498 renal, in the assay on SK-MEL-5 melanoma and in the assay with OVCAR-5 ovarian was over 100 µM throughout.
On to `COC(=O)[C@@H](C)[C@H]1CC[C@@](C)(CCC2=C(C)CC3C=C(C)CCC3C2(C)C)OO1` (some centres not stated), for which the TGI came to 2.75 µM in the assay on MOLT-4 leukemia; 2.82 µM with HCT-15 colon; 3 µM in the assay with OVCAR-4 ovarian; 3.19 µM in the assay with A498 renal; 2.87 µM in the assay on SK-MEL-5 melanoma; 3.27 µM with OVCAR-5 ovarian.
Turning to `COc1ccc2c(c1)NC1(O)c3ccccc3C(=O)C21O` (configuration not stated), the TGI with MOLT-4 leukemia, in the assay on K-562 leukemia, in the assay with A498 renal, in the assay on LOX IMVI melanoma and in the assay on SK-MEL-5 melanoma was over 100 µM throughout.
